Reference: PubChem BioAssay AID316 (DTP/NCI, 2004)
Where “and” joins values, the source holds several entries; their conditions need not be identical. Equal entries are not always repeated. Inconclusive results and toxic doses are left out.

System: P1534 leukemia ip, CD2F1 mice, survival T/C
Experiment: NCI In Vivo Anticancer Drug Screen. Data for tumor model P1534 Leukemia (intraperitoneal) in CD2F1 (CDF1) mice
Conditions: higher = longer survival
Protocol: The antitumor activity of compounds was measured in mice bearing transplantable tumors. Survival or tumor size were measured and the results are expressed as the measurement made in the treated group (T) divided by the measurement made in the vehicle treated control group (C). The tumor model used in this assay is P1534 Leukemia (intraperitoneal) in CD2F1 (CDF1) mice

[1] = endpoint: mean survival time, dose: 50.0 mg/kg/injection, schedule: Q01DX010 (ip), vehicle: saline
[2] = endpoint: mean survival time, dose: 100.0 mg/kg/injection, schedule: Q01DX010 (ip), vehicle: saline
[3] = endpoint: mean survival time, dose: 200.0 mg/kg/injection, schedule: Q01DX010 (ip), vehicle: saline
[4] = endpoint: mean survival time, dose: 400.0 mg/kg/injection, schedule: Q01DX010 (ip), vehicle: saline
[5] = endpoint: mean survival time, dose: 62.5 mg/kg/injection, schedule: Q01DX010 (ip), vehicle: saline
[6] = endpoint: mean survival time, dose: 125.0 mg/kg/injection, schedule: Q01DX010 (ip), vehicle: saline
[7] = endpoint: mean survival time, dose: 10.0 mg/kg/injection, schedule: Q01DX010 (ip), vehicle: saline
[8] = endpoint: mean survival time, dose: 20.0 mg/kg/injection, schedule: Q01DX010 (ip), vehicle: saline
[9] = endpoint: mean survival time, dose: 40.0 mg/kg/injection, schedule: Q01DX010 (ip), vehicle: saline
[10] = endpoint: mean survival time, dose: 25.0 mg/kg/injection, schedule: Q01DX010 (ip), vehicle: saline
[11] = endpoint: mean survival time, dose: 2.5 mg/kg/injection, schedule: Q01DX010 (ip), vehicle: saline
[12] = endpoint: mean survival time, dose: 5.0 mg/kg/injection, schedule: Q01DX010 (ip), vehicle: saline
[13] = endpoint: mean survival time, dose: 12.5 mg/kg/injection, schedule: Q01DX010 (ip), vehicle: saline
[14] = endpoint: mean survival time, dose: 200.0 mg/kg/injection, schedule: Q01DX010 (ip), vehicle: water
[15] = endpoint: mean survival time, dose: 50.0 mg/kg/injection, schedule: Q01DX010 (sc), vehicle: steriod suspending solution
[16] = endpoint: mean survival time, dose: 100.0 mg/kg/injection, schedule: Q01DX010 (sc), vehicle: steriod suspending solution

O=C1C(=O)N(CN(CCO)CCO)c2ccccc21
T/C [1]: 96 % of control | T/C [2]: 100 % of control | T/C [3]: 100 % of control | T/C [4]: 100 % of control

O=C1C(=O)N(CN2CCCCC2)c2ccccc21
T/C [1]: 100 % of control | T/C [2]: 100 % of control | T/C [3]: 96 % of control | T/C [4]: 100 % of control

CC(=O)NNC(=O)c1ccccn1
T/C (endpoint: mean survival time, dose: 110.0 mg/kg/injection, schedule: Q01DX010 (ip), vehicle: water): 100 % of control | T/C (endpoint: mean survival time, dose: 120.0 mg/kg/injection, schedule: Q01DX010 (ip), vehicle: water): 107 % of control | T/C (endpoint: mean survival time, dose: 140.0 mg/kg/injection, schedule: Q01DX010 (ip), vehicle: water): 98 % of control | T/C (endpoint: mean survival time, dose: 160.0 mg/kg/injection, schedule: Q01DX010 (ip), vehicle: water): 112 % of control

CC1CCC(NC(=O)N(CCCl)N=O)CC1 (stereo not drawn)
T/C (endpoint: median survival time, dose: 1.0 mg/kg/injection, schedule: Q01DX005 (ip), vehicle: other): 111 % of control | T/C (endpoint: median survival time, dose: 4.0 mg/kg/injection, schedule: Q01DX005 (ip), vehicle: other): 255 % of control | T/C (endpoint: median survival time, dose: 8.0 mg/kg/injection, schedule: Q01DX005 (ip), vehicle: other): 255 % of control | T/C (endpoint: median survival time, dose: 16.0 mg/kg/injection, schedule: Q01DX005 (ip), vehicle: other): 115 % of control

CC(=O)c1ccc[nH]1
T/C [5]: 100 % of control | T/C [6]: 96 % of control

CC1CCOS(=O)O1 (stereo not drawn)
T/C [7]: 103 % of control | T/C [8]: 100 % of control | T/C [9]: 100 % of control

CCCCCCCCCCCCCCCCC(C(=O)O)C(O)(CC(=O)O)C(=O)O (stereo not drawn)
T/C [10]: 88 % of control

CN(C)c1ccc(/C=C\c2ccnc3ccccc23)cc1
T/C (endpoint: mean survival time, dose: 8.0 mg/kg/injection, schedule: Q01DX010 (ip), vehicle: saline): 115 % of control | T/C (endpoint: mean survival time, dose: 12.0 mg/kg/injection, schedule: Q01DX010 (ip), vehicle: saline): 115 % of control | T/C (endpoint: mean survival time, dose: 18.0 mg/kg/injection, schedule: Q01DX010 (ip), vehicle: saline): 103 % of control and 100 % of control | T/C (endpoint: mean survival time, dose: 27.0 mg/kg/injection, schedule: Q01DX010 (ip), vehicle: saline): 123 % of control

C[C@]12CCC(=O)C=C1CC[C@@H]1[C@@H]2[C@@H](O)C[C@@]2(C)[C@H]1CC[C@]2(O)C(=O)CO
T/C (endpoint: mean survival time, dose: 10.0 mg/kg/injection, schedule: Q01DX005 (sc), vehicle: steriod suspending solution): 110 % of control (2×) and 118 % of control | T/C (endpoint: mean survival time, dose: 50.0 mg/kg/injection, schedule: Q01DX005 (sc), vehicle: steriod suspending solution): 104 % of control (2×) and 110 % of control | T/C (endpoint: mean survival time, dose: 100.0 mg/kg/injection, schedule: Q01DX005 (sc), vehicle: steriod suspending solution): 90 % of control and 95 % of control | T/C (endpoint: mean survival time, dose: 200.0 mg/kg/injection, schedule: Q01DX005 (sc), vehicle: steriod suspending solution): 87 % of control and 89 % of control | T/C (endpoint: mean survival time, dose: 250.0 mg/kg/injection, schedule: Q01DX005 (sc), vehicle: steriod suspending solution): 93 % of control

CCC1=CC2CN3CCc4c([nH]c5ccccc45)C(C(=O)OC)(C2)C13 (stereo not drawn)
T/C [11]: 117 % of control | T/C [12]: 103 % of control | T/C [7]: 100 % of control | T/C [8]: 92 % of control

CC1CCCCN1 (stereo not drawn)
T/C (endpoint: mean survival time, dose: 6.25 mg/kg/injection, schedule: Q01DX010 (ip), vehicle: saline): 103 % of control | T/C [13]: 103 % of control | T/C [10]: 103 % of control | T/C [1]: 96 % of control

CO[C@@H]1[C@@H](OC2OC(C)C(OC3CC(C)(O)C(OC(=O)CC(C)C)C(C)O3)C(N(C)C)C2O)[C@@H](CC=O)C[C@@H](C)C(=O)/C=C/C2O[C@H]2C[C@@H](C)OC(=O)C[C@H]1OC(C)=O (stereo partly drawn)
T/C (endpoint: mean survival time, dose: 50.0 mg/kg/injection, schedule: Q#A X020 (ip), vehicle: water): 96 % of control | T/C (endpoint: mean survival time, dose: 100.0 mg/kg/injection, schedule: Q01DX010 (ip), vehicle: water): 92 % of control | T/C (endpoint: mean survival time, dose: 100.0 mg/kg/injection, schedule: Q#A X020 (ip), vehicle: water): 107 % of control and 109 % of control | T/C (endpoint: mean survival time, dose: 125.0 mg/kg/injection, schedule: Q#A X020 (ip), vehicle: water): 113 % of control | T/C (endpoint: mean survival time, dose: 150.0 mg/kg/injection, schedule: Q#A X020 (ip), vehicle: water): 115 % of control | T/C (endpoint: mean survival time, dose: 175.0 mg/kg/injection, schedule: Q#A X020 (ip), vehicle: water): 116 % of control | T/C [14]: 110 % of control | T/C (endpoint: mean survival time, dose: 250.0 mg/kg/injection, schedule: Q01DX010 (ip), vehicle: water): 121 % of control | T/C (endpoint: mean survival time, dose: 300.0 mg/kg/injection, schedule: Q01DX010 (ip), vehicle: water): 104 % of control | T/C (endpoint: mean survival time, dose: 1000.0 mg/kg/injection, schedule: Q01DX010 (oral), vehicle: water): 119 % of control

CC/C(=C(/CC)c1ccc(O)cc1)c1ccc(O)cc1
T/C (endpoint: mean survival time, dose: 12.5 mg/kg/injection, schedule: Q01DX010 (sc), vehicle: steriod suspending solution): 95 % of control and 100 % of control | T/C (endpoint: mean survival time, dose: 25.0 mg/kg/injection, schedule: Q01DX010 (sc), vehicle: steriod suspending solution): 95 % of control and 100 % of control | T/C [15]: 95 % of control and 100 % of control | T/C [16]: 90 % of control and 100 % of control

COc1ccc2cc3[n+](cc2c1O)CCc1cc2c(cc1-3)OCO2
T/C [13]: 111 % of control | T/C [10]: 123 % of control | T/C [1]: 115 % of control

Cc1n[nH]c(C)c1Br
T/C (endpoint: mean survival time, dose: 150.0 mg/kg/injection, schedule: Q01DX010 (ip), vehicle: water): 101 % of control | T/C [14]: 104 % of control

O=C(NCCCCCCNC(=O)OCc1ccccc1)OCc1ccccc1
T/C [1]: 100 % of control | T/C [2]: 96 % of control | T/C [3]: 92 % of control | T/C [4]: 100 % of control

CC(C)=CCN=C(N)N
T/C [13]: 103 % of control | T/C [10]: 106 % of control

C[C@]12CCC(=O)C[C@H]1CC[C@@H]1[C@@H]2CC[C@@]2(C)[C@H]1CC[C@]2(C)O
T/C [15]: 100 % of control | T/C [16]: 100 % of control | T/C (endpoint: mean survival time, dose: 200.0 mg/kg/injection, schedule: Q01DX010 (sc), vehicle: steriod suspending solution): 96 % of control | T/C (endpoint: mean survival time, dose: 400.0 mg/kg/injection, schedule: Q01DX010 (sc), vehicle: steriod suspending solution): 96 % of control

c1ccc(CCSc2ncnc3nc[nH]c23)cc1
T/C [6]: 100 % of control | T/C (endpoint: mean survival time, dose: 500.0 mg/kg/injection, schedule: Q01DX010 (ip), vehicle: saline): 103 % of control

O=C(NCCCCC(NC(=O)OCc1ccccc1)C(=O)NCCCNCCCCNCCCNC(=O)C(CCCCNC(=O)OCc1ccccc1)NC(=O)OCc1ccccc1)OCc1ccccc1 (stereo not drawn)
T/C [11]: 100 % of control | T/C [12]: 100 % of control | T/C [7]: 100 % of control

O=C(NCCCCC(NC(=O)OCc1ccccc1)C(=O)NCCCCCCNCCCCCCNC(=O)C(CCCCNC(=O)OCc1ccccc1)NC(=O)OCc1ccccc1)OCc1ccccc1 (stereo not drawn)
T/C [13]: 107 % of control | T/C [10]: 114 % of control | T/C [1]: 114 % of control

O=P1(N(CCCl)CCCl)NCCCO1 (stereo not drawn)
T/C (endpoint: mean survival time, dose: 2.9 mg/kg/injection, schedule: Q01DX010 (ip), vehicle: saline): 98 % of control | T/C (endpoint: mean survival time, dose: 5.7 mg/kg/injection, schedule: Q01DX010 (ip), vehicle: saline): 106 % of control | T/C (endpoint: mean survival time, dose: 11.3 mg/kg/injection, schedule: Q01DX010 (ip), vehicle: saline): 111 % of control

Cn1c(N)nc2nc[nH]c2c1=S
T/C [7]: 100 % of control | T/C [8]: 100 % of control | T/C [9]: 96 % of control | T/C (endpoint: mean survival time, dose: 80.0 mg/kg/injection, schedule: Q01DX010 (ip), vehicle: saline): 110 % of control

COc1ccc(/C=N/NC(N)=S)cc1
T/C (endpoint: mean survival time, dose: 32.0 mg/kg/injection, schedule: Q01DX010 (ip), vehicle: saline): 100 % of control | T/C (endpoint: mean survival time, dose: 64.0 mg/kg/injection, schedule: Q01DX010 (ip), vehicle: saline): 100 % of control | T/C (endpoint: mean survival time, dose: 128.0 mg/kg/injection, schedule: Q01DX010 (ip), vehicle: saline): 100 % of control | T/C (endpoint: mean survival time, dose: 256.0 mg/kg/injection, schedule: Q01DX010 (ip), vehicle: saline): 106 % of control

COc1ccc(C2NC(C(=O)O)Cc3c2[nH]c2ccccc32)cc1OC (stereo not drawn)
T/C [1]: 96 % of control | T/C [2]: 100 % of control | T/C [3]: 100 % of control | T/C [4]: 100 % of control

O=C(CNC(=O)OCc1ccccc1)NCCCCCCNCCCCCCNC(=O)CNC(=O)OCc1ccccc1
T/C [10]: 100 % of control | T/C [1]: 107 % of control | T/C [2]: 103 % of control | T/C [3]: 100 % of control

CN(CC(=O)NCCCCCCCCCCNC(=O)CN(C)C(=O)OCc1ccccc1)C(=O)OCc1ccccc1
T/C [1]: 96 % of control | T/C [2]: 96 % of control | T/C [3]: 96 % of control | T/C [4]: 96 % of control

O=CN(O)CC(=O)O
T/C (endpoint: mean survival time, dose: 15.6 mg/kg/injection, schedule: Q01DX010 (ip), vehicle: saline): 100 % of control | T/C (endpoint: mean survival time, dose: 31.3 mg/kg/injection, schedule: Q01DX010 (ip), vehicle: saline): 100 % of control | T/C [5]: 100 % of control | T/C [6]: 103 % of control
